Key:
[1] = target: T1, aldose reductase derived from human muscle cells (Homo sapiens, UniProt P15121); test: Inhibitory activities of aldose reductase; type: biochemical; details: for inhibitory activities of aldose reductase (in words): concentrations as in Table 1; for inhibition at 10 µM: final concentration 10 μM; for inhibition at 10 µM / inhibition at 20 µM / inhibition at 40 µM: average of two values, read-out: Inhibitory Ratio (%) of Aldose Reductase; for inhibition at 20 µM: final concentration 20 μM; for inhibition at 40 µM: final concentration 40 μM
T1 construct: purchased Wako Pure Chemical Industries
Protocol: Inhibitory activities of aldose reductase of the compounds prepared in Examples 1 to 9 (TB3, TB4, TB5, TB6, TB7, TB8, TB9, compound (C081) or compound (C042)) were measured by the following method. Twenty microliters of 100 mM methylglyoxal was added to 10 μL of a sample (dissolved each compound in a 50% aqueous dimethyl sulfoxide solution), 100 μL of 0.2 M phosphate buffer (pH 6.2), 20 μL of 1 mM NADPH (phosphate buffer), and 10 μL of a solution of aldose reductase derived from human muscle cells (0.1 U/mL, manufactured by Wako Pure Chemical Industries, phosphate buffer). After 30 seconds passed, change in absorbance of NADPH at 340 nm was determined for 180 seconds. A 50% aqueous dimethyl sulfoxide solution was used as a negative control in place of the sample. In addition, the absorbance was determined using distilled water as a blank of each sample in place of the methylglyoxal solution. The found values are expressed as an average of the values in two experimental values. The inhibitory ratio (%) of aldose reductase was calculated in accordance with the following formula. Inhibitory Ratio (%)=[1−[(ΔAs−ΔAsb)/(ΔAc−ΔAcb)]]×100
Here, ΔAs and ΔAc are changes in absorbance per 1 minute of a sample solution, and a negative control solution, respectively, and ΔAsb and ΔAcb are changes in absorbance per 1 minute of blank of a sample solution, and a negative control solution, respectively.

RAW 264.7 cells = test: Suppressive activities of NO production (LPS-induced, NO2- by Griess reagent); type: cell-based; details: for inhibition at 10 µM / inhibition at 20 µM / inhibition at 5 µM: Mus musculus, LPS, 16 hours, read-out: Suppressive Ability for Induction of NO Production by LPS (%); for inhibition at 10 µM: RAW264.7, 10 μM; for inhibition at 20 µM: RAW264.7, 20 μM; for suppression of the induction of NO production by LPS (in words): concentrations as in Table 2; for inhibition at 5 µM: RAW264.7, 5 μM
Protocol: Suppressive activities of NO production of the compounds prepared in Examples 1 to 9 (TB3, TB4, TB5, TB6, TB7, TB8, TB9, compound (C081) and compound (C042)) were measured by the following method. RAW 264.7 cells (ATCC TIB 71) were suspended in Dulbecco's modified Eagle's medium (manufactured by Sigma, D5796) containing 10% fetal bovine serum (manufactured by Bio Whittaker, 14-506F), so as to have a concentration of 4×10^5 cells/mL, and the suspension was put to each well of a 48-well microtiter plate in an amount of 500 μL per well. The cells were cultured at 37° C. in the presence of 5% carbon dioxide gas. After 24 hours, the medium was exchanged with Dulbecco's modified Eagle's medium (manufactured by Bio Whittaker, 12-917F) containing 10% fetal bovine serum (manufactured by Bio Whittaker), 2 mM L-glutamine (manufactured by Life Tech Oriental Co., Ltd., 25030-149) without containing phenol red. A 10 mM, 5 mM, or 2.5 mM TB3, TB4, TB5, TB6, TB7, TB8, TB9, compound (C081) or compound (C042) (all are dimethyl sulfoxide solution) was added to each well in an amount of 1 μL per well. After additional 1 hour of culture, a 100 μg/mL aqueous lipopolysaccharide (LPS, manufactured by Sigma, L-2010) solution was added to each well in an amount of 5 μL per well, and the cells were cultured for 16 hours. Thereafter, the concentration of NO2^− which was produced by oxidation of NO in the medium was determined. In addition, there was set a group with addition of dimethyl sulfoxide in place of the each compound as a control. After the above-mentioned culture, 100 μL of a 4% grease reagent (manufactured by Sigma, G4410) was added to 100 μL of the supernatant of the culture medium, and the mixture was allowed to stand at room temperature for 15 minutes. Thereafter, absorbance at 540 nm was determined. The concentration of NO2^− in the medium was calculated from a calibration curve prepared from known concentrations of NaNO2 (manufactured by Sigma, S2252). All of the determinations were carried out twice. The suppressive ability of NO production of the each compound was calculated in accordance with the following formula.

inhibition at 10 µM [1] [%] | inhibition at 20 µM [1] [%] | inhibition at 40 µM [1] [%] | SMILES | inhibitory activities of aldose reductase (in words) [1] | inhibition at 10 µM (RAW 264.7 cells) [%] | inhibition at 20 µM (RAW 264.7 cells) [%] | suppression of the induction of NO production by LPS (in words) (RAW 264.7 cells) | inhibition at 5 µM (RAW 264.7 cells) [%]
47.8 | 68.7 | – | CC(C)CCc1c(O)ccc(C(=O)/C=C/c2ccc(O)cc2)c1O [Compound (C042), 1-[2,4-dihydroxy-3-(3-methylbutyl)phenyl]-3-(4-hydroxyphenyl)-2-propen-1-one] | inhibitory activities of aldose reductase in a concentration-dependent manner | 19.3 | 50.2 | suppressed the induction of NO production by LPS in a concentration-dependent manner | –
11.9 | 16.2 | 26.7 | COc1ccc(C(=O)/C=C/c2ccc(O)cc2)c(O)c1C/C=C(\C)C/C=C/C(C)(C)O [Compound (C081), 1-[2-hydroxy-3-(7-hydroxy-3,7-dimethyl-2,5-octadienyl)-4-methoxyphenyl]-3-(4-hydroxyphenyl)-2-propen-1-one] | inhibitory activities of aldose reductase in a concentration-dependent manner | 31.6 | 53.7 | suppressed the induction of NO production by LPS in a concentration-dependent manner | –
57.4 | 57.9 | – | COc1ccc(C(=O)/C=C/c2ccc(O)cc2)c2c1CC(C(C)(C)O)O2 (centres unmarked) [TB4, 1-[2,3-dihydro-2-(1-hydroxy-1-methylethyl)-4-methoxybenzofuran-7-yl]-3-(4-hydroxyphenyl)-2-propen-1-one] | inhibitory activities of aldose reductase in a concentration-dependent manner | 56.4 | 63.7 | suppressed the induction of NO production by LPS in a concentration-dependent manner | 32.6
20.1 | 33.8 | 54.3 | COc1ccc(C(=O)/C=C/c2ccc(O)cc2)c(O)c1CC1C2(C)CCC(O2)C1(C)C (centres unmarked) [TB7, 1-[3-(2,5-epoxy-2,6,6-trimethyl-cyclohexylmethyl)-2-hydroxy-4-methoxyphenyl]-3-(4-hydroxyphenyl)-2-propen-1-one] | inhibitory activities of aldose reductase in a concentration-dependent manner | 23.9 | 42.9 | suppressed the induction of NO production by LPS in a concentration-dependent manner | 12.2
31.6 | 44.7 | 57.3 | C=C(C)C(CC/C(C)=C/Cc1c(OC)ccc(C(=O)/C=C/c2ccc(O)cc2)c1O)OO (centres unmarked) [TB9, 1-[2-hydroxy-3-(6-hydroperoxy-3,7-dimethyl-2,7-octadienyl)-4-methoxyphenyl]-3-(4-hydroxyphenyl)-2-propen-1-one] | inhibitory activities of aldose reductase in a concentration-dependent manner | 29.2 | 49.6 | suppressed the induction of NO production by LPS in a concentration-dependent manner | 11.2

The remaining lines, values behind:

SMILES | inhibition at 10 µM [1] [%] | inhibition at 20 µM [1] [%] | inhibition at 40 µM [1] [%] | inhibitory activities of aldose reductase (in words) [1] | inhibition at 10 µM (RAW 264.7 cells) [%] | inhibition at 20 µM (RAW 264.7 cells) [%] | suppression of the induction of NO production by LPS (in words) (RAW 264.7 cells) | inhibition at 5 µM (RAW 264.7 cells) [%]
CC(C)=CCCC(C)(O)C1Cc2c(ccc(C(=O)/C=C/c3ccc(O)cc3)c2O)O1 (centres unmarked) [TB3, 1-[2,3-dihydro-4-hydroxy-2-(1-hydroxy-1,5-dimethyl-4-hexenyl)-benzofuran-5-yl]-3-(4-hydroxyphenyl)-2-propen-1-one] | 14.2 | 30.1 | 53.8 | inhibitory activities of aldose reductase in a concentration-dependent manner | 9.5 | 43.8 | suppressed the induction of NO production by LPS in a concentration-dependent manner | 8.9
C/C(=C\Cc1c(O)ccc(C(=O)/C=C/c2ccc(O)cc2)c1O)CCC(O)C(C)(C)O (centres unmarked) [TB5, 1-[2,4-dihydroxy-3-(6,7-dihydroxy-3,7-dimethyl-2-octenyl)phenyl]-3-(4-hydroxyphenyl)-2-propen-1-one] | 35.1 | 49.7 | 66.7 | inhibitory activities of aldose reductase in a concentration-dependent manner | 35.2 | 76 | suppressed the induction of NO production by LPS in a concentration-dependent manner | 17.9
CCOC(C)(C)C(O)CC/C(C)=C/Cc1c(O)ccc(C(=O)/C=C/c2ccc(O)cc2)c1O (centres unmarked) [TB6, 1-[3-(7-ethoxy-6-hydroxy-3,7-dimethyl-2-octenyl)-2,4-dihydroxyphenyl]-3-(4-hydroxyphenyl)-2-propen-1-one] | 41.9 | 56.5 | 66.8 | inhibitory activities of aldose reductase in a concentration-dependent manner | 29.4 | 62.2 | suppressed the induction of NO production by LPS in a concentration-dependent manner | 17.3
COc1ccc(C(=O)/C=C/c2ccc(O)cc2)c(O)c1C/C=C(\C)C/C=C/C(C)(C)OO [TB8, 1-[2-hydroxy-3-(7-hydroperoxy-3,7-dimethyl-2,5-octadienyl)-4-methoxyphenyl]-3-(4-hydroxyphenyl)-2-propen-1-one] | 17.9 | 32.7 | 44.2 | inhibitory activities of aldose reductase in a concentration-dependent manner | 18.7 | 36.9 | suppressed the induction of NO production by LPS in a concentration-dependent manner | 12.2
